Here are results for one compound from PMC9574050, “Design, synthesis, and insecticidal activity of a novel series of flupyrimin analogs bearing 1-aryl-1H-pyrazol-4-yl subunits” (Frontiers in Chemistry, 2022).

One may read the mortality as the percentage killed.

Assay type in all cases: in vivo
In series [1] the test system is Chilo suppressalis. The series is described as follows: Insecticidal activity against Chilo suppressalis (soaking method). As to conditions: 96 h, 400 μg/mL, 3rd instar larvae, counted 4 days later, read-out: Mortality rate (%) C. suppressalis.
The test system of series [2] is honeybees (Apis mellifera). The series is described as follows: Bee acute oral toxicity. As to conditions: for LD50 / Mortality / Toxicity level: Oral toxicity. As to the method: (§1) The test bees were Italian bees (Apis mellifera), and the newly born adult worker bees (<24 h) were selected for drug drip treatment. Weigh 50 mg of test substance FLP and fully dissolve it in DMSO to obtain 10 × 10^4 mg A.I./L of stock liquid medicine; dissolve B4 fully in DMSO and fix the volume to a 1-ml volumetric flask to obtain 11.6 × 10^4 mg A.I./L stock solution.
Oral toxicity. Before the formal experiment, a pre-experiment was carried out. According to the formal experimental conditions, three to four dose groups were set at large intervals to observe the death of bees between 24 and 48 h and determine the linear range of the lethal effect of drugs on bees. According to the pre-test results, determine the concentration range of the formal test and set five to seven test dose groups. Starve bees for 2 h before being infected, and then eliminate bees that are dying or have abnormal behaviors; put 200 μL of test liquid medicine in the feeding tube, and after the liquid medicine is consumed (within 6 h), take out the feeder to measure the weight of the food that has not been consumed. Then, the bees were fed with sucrose solution without test samples. Cultivate in the dark. At the same time, feeding 50% sucrose solution as a blank control, the treatment group and the control group were set up with three replicates, and 20 bees were used in each replicate. According to the results of the pre-experiment, if the toxicity of the drug to bees is low, the upper limit dose of 100 μg a.i./bee is set for the limit test of bees, that is, when the tested substance reaches 100 μg a.i./bee, no bees die, so there is no need to continue the test. If the solubility of the test substance is less than 100 μg a. i./bee, the maximum solubility is adopted as the upper limit concentration. The test results were examined at 24 and 48 h, respectively, and the number of deaths and poisoning symptoms were recorded. The standard of death is touching the bee's body, and when it can't crawl, it is judged as death.
(§2) Statistical analysis. Using the statistical software SPSS16.0, the LD50 value and 95% confidence limit of the half lethal dose of the sample to bees were obtained by regression statistical analysis with the probit analysis method.

For series [3], the system named is honeybees (Apis mellifera). Nature of the series: Bee contact toxicity. As to conditions: for LD50 / Toxicity level / Mortality: Contact toxicity; for Mortality: 1 μL of 10 × 10^4 mg A.I./L per bee. On the procedure:
as §1
Contact toxicity. 10 × 10^4 mg A.I./L of mother liquor was used as the test liquid, and 1 μL of the solution containing the tested drug was dripped onto the back of the front chest of bees by a micro-dropper. Then, bees were put into a beekeeping box and cultured in dark conditions at a temperature of 30 ± 1°C and relative humidity of 50%, with a 50% sucrose solution as food for 48 h. Taking the solvent drip bees without the drug to be tested as the blank control, the treatment group and the control group were set up with three replicates, and 10 bees were used in each replicate.
as §2

Series [4] deals with Plutella xylostella. The series is described as follows: Insecticidal activity against Plutella xylostella (soaking method). To be noted: Plutella xylostella, 48 h, 2nd instar larvae, counted 2 days later, read-out: Mortality rate (%) P. xylostella.
Series [5] concerns Aphis craccivora. The series is described as follows: Insecticidal activity against Aphis craccivora (Potter spray tower). As to conditions: 400 μg/mL, counted 24 h later, read-out: Mortality rate (%) A. craccivora.
In series [6] the test system is Nilaparvata lugens. Nature of the series: Insecticidal activity against Nilaparvata lugens (Potter spray tower). As to conditions: 24 h, 400 μg/mL, 3rd instar nymphae, 1 day after treatment, read-out: Mortality rate (%) N. lugens.
For series [7], the system named is Helicoverpa armigera. The series is described as follows: Insecticidal activity against Helicoverpa armigera (soaking method). As to conditions: Helicoverpa armigera, 48 h; 400 μg/mL; 2nd instar larvae; counted 2 days later; read-out: Mortality rate (%) H. armigera.

As for `COCC(=O)/N=c1\ccccn1Cc1cnn(-c2ccc(Cl)cc2)c1C(F)(F)F` [Compound B4, (E)-N-(1-((1-(4-chlorophenyl)-5-(trifluoromethyl)-1H-pyrazol-4-yl)methyl)pyridin-2(1H)-ylidene)-2-methoxyacetamide], the mortality at 400 µg/mL in series [1] was determined as 0%; in series [4] (400 μg/mL) it was 100%; in series [5], 0%; in series [6], 0%; in series [7], 0%. Further, the LD50 in series [2] (24 h), in series [2] (48 h), in series [3] (24 h) and in series [3] (48 h) was more than 11.0 μg a.i./bee throughout. Further, the Mortality is given as 15 in series [2] (24 h), 17 in series [2] (48 h), 3 in series [3] (24 h) and 3 in series [3] (48 h). Also, the Toxicity level entry in series [2] (24 h), in series [2] (48 h), in series [3] (24 h) and in series [3] (48 h) was “Low toxicity” throughout. Also, the LD50 oral toxicity in series [2] (adult bees, time not stated) was more than 11.0 μg a.i./bee. For the same compound, the LD50 contact toxicity in series [3] (adult bees, time not stated) is on record as more than 11.0 μg a.i./bee. For the same compound, the mortality at 100 µg/mL in series [4] (100 μg/mL) is 96.7%.
